In ChEMBL document CHEMBL4028864 (J Med Chem, 2017):

How the values were obtained:
PC-3 = test: cells; type: functional, cell-based; conditions: Homo sapiens, PC-3, 72 h
MCF7 = test: cells; type: functional, cell-based; conditions: Homo sapiens, MCF7, 72 h
[1] = biological target: T1, Tyrosine-protein kinase JAK2 (Homo sapiens, UniProt O60674); test: Inhibition of human JAK2 using poly[Glu:Tyr] as substrate in presence of [gamma-33P]-ATP
HCT-116 = test: Antiproliferative activity against human HCT116 cells after 72 hrs by MTT assay; type: functional, cell-based; conditions: HCT-116, 72 h
[2] = biological target: T2, Protein deacetylase HDAC6 (Homo sapiens, UniProt Q9UBN7); test: Inhibition of N-terminal GST tagged human HDAC6 (1 to 1215 residues) expressed in baculovirus infected insect cells using RHKKAc as substrate in presence of ATP
T2 sequence (Q9UBN7 whole entry): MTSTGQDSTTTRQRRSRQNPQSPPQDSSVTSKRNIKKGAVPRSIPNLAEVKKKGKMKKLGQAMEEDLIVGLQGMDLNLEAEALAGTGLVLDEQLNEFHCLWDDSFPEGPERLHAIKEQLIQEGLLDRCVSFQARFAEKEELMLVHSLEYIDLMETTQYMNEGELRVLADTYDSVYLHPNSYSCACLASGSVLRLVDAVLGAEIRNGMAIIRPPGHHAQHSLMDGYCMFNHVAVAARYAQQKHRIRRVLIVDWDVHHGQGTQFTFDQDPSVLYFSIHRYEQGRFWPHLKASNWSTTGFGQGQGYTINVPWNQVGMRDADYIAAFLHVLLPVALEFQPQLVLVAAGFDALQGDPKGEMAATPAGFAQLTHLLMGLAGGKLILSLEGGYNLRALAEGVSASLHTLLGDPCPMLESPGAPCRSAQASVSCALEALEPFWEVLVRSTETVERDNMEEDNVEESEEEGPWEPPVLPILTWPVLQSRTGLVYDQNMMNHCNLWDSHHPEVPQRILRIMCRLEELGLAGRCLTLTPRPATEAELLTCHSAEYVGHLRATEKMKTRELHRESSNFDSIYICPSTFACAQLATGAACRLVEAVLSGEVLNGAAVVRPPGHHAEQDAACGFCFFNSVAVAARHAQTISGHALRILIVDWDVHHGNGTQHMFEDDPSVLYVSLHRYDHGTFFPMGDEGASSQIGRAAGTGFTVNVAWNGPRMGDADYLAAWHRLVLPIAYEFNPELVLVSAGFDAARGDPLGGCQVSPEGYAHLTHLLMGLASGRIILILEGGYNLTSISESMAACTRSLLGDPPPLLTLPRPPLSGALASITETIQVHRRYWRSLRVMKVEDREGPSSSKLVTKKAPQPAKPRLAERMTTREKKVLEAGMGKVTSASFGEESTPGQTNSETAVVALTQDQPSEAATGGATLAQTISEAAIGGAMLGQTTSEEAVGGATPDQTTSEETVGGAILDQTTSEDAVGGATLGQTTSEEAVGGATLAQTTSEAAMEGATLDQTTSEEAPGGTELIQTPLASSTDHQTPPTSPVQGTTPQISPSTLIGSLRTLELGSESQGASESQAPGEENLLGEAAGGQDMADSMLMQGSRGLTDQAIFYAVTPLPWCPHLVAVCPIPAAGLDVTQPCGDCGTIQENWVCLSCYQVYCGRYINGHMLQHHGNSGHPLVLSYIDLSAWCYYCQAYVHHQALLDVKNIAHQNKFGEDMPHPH

MDA-MB-231 = test: cells; type: functional, cell-based; conditions: Homo sapiens, MDA-MB-231, 72 h
[3] = biological target: T1, Tyrosine-protein kinase JAK2; test: Binding affinity to N-terminal His tagged human recombinant JAK2 (1014 to 1132 residues) expressed in Escherichia coli after 60 to 90 mins by LC/MS analysis; conditions: read-out: Kd(app)
Histone deacetylase 1 = Histone deacetylase 1 (Homo sapiens, UniProt Q13547); test: Inhibition of C-terminal FLAG His tagged full length human recombinant HDAC1 (1 to 482 residues) expressed in baculovirus infected sf21 cells using RHKKAc as substrate in presence of ATP
Jurkat = test: cells; type: functional, cell-based; conditions: Homo sapiens
HL-60 = test: Antiproliferative activity against human HL60 cells; type: functional, cell-based
HEL 92.1.7 = test: cells; type: functional, cell-based; conditions: Homo sapiens, HEL 92.1.7, 36 h
MOLM-14 = test: cells; type: functional, cell-based; conditions: Homo sapiens, MOLM-14, 48 h
KMS-12-BM = test: cells; type: functional, cell-based; conditions: Homo sapiens, 48 h
cells [4] = type: ADME, cell-based; conditions: Homo sapiens, AC10, 24 h
cells [5] = type: functional, cell-based; conditions: Homo sapiens, NKYS, 48 h

Chain of Histone deacetylase 1 (Q13547 whole entry, the tested form may be a part): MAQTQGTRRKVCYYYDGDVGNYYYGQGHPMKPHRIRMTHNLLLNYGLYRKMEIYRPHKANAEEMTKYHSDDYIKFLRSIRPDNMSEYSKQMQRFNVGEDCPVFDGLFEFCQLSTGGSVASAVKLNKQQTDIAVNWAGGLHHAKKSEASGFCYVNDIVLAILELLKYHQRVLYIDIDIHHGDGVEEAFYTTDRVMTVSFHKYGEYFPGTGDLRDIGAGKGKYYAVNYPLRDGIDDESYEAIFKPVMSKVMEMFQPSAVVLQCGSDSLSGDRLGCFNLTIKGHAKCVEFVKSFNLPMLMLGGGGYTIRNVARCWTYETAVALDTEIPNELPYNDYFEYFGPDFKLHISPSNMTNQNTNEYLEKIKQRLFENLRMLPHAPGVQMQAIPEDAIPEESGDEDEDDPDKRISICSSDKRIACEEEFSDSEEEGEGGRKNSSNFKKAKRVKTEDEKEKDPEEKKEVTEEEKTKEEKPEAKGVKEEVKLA
T1 sequence (O60674 whole entry): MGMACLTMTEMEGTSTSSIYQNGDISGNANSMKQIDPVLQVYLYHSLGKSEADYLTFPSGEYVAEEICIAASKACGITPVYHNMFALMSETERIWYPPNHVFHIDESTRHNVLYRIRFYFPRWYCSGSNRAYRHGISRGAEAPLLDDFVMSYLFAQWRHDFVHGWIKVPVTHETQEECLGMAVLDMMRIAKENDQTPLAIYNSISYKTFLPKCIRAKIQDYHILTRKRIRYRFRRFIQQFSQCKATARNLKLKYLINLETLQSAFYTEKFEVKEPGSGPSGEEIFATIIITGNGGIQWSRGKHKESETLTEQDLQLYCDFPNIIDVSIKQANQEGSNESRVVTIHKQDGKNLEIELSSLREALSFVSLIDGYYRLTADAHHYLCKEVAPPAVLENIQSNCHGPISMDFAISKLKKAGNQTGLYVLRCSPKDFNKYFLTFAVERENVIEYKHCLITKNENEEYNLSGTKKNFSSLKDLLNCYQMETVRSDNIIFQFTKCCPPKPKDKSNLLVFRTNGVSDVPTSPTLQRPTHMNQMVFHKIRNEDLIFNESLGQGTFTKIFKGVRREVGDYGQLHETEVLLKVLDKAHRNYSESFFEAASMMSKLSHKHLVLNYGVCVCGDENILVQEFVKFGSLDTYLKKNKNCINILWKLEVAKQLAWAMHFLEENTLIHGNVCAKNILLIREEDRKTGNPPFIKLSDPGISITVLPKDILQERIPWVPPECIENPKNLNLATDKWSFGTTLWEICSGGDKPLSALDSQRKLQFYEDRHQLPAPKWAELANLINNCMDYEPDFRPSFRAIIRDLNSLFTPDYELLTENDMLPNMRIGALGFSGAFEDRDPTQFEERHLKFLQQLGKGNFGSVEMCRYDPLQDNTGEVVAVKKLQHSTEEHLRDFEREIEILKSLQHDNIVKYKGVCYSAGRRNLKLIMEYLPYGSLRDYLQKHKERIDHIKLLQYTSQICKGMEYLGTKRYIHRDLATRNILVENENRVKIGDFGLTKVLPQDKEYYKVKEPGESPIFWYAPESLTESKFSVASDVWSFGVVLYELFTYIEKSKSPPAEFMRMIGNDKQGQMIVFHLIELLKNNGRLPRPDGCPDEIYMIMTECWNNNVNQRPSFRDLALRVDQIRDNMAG

Row | Structure (SMILES) | IC50 (PC-3) [µM] | IC50 (MCF7) [µM] | IC50 [1] [µM] | IC50 (HCT-116) [µM] | IC50 [2] [µM] | IC50 (MDA-MB-231) [µM] | Kd [3] [µM] | IC50 (Histone deacetylase 1) [µM] | IC50 (Jurkat) [µM] | IC50 (HL-60) [µM] | IC50 (HEL 92.1.7) [µM] | IC50 (MOLM-14) [µM] | IC50 (KMS-12-BM) [µM] | IC50 (cells [4]) [µM] | IC50 (cells [5]) [µM]
1 | O=C(CCCn1cc(-c2ncnc3[nH]ccc23)cn1)NO | > 100 | > 100 | 3.56 | > 100 | 0.604 | > 100 | 5 | – | – | – | – | – | – | – | –
2 | O=C(CCCCCCCn1cc(-c2ncnc3[nH]ccc23)cn1)NO | 12.9 | 12.4 | 0.481 | 11.8 | 0.0018 | 12.9 | 2 | 0.036 | – | – | – | – | – | – | –
3 | O=C(CCCCCCC(=O)Nc1ccc(NCCCn2cc(-c3ncnc4[nH]ccc34)cn2)cc1)NO | 23.9 | 15.2 | 0.265 | 19.4 | 0.00014 | 25.5 | 1 | 0.11 | 4 | > 10 | > 4 | – | – | – | –
4 | O=C(CCCCCCC(=O)Nc1ccccc1)NO [VORINOSTAT] | – | – | – | 1.85 | – | – | – | – | – | – | – | – | – | – | –
5 | O=C(CCCCCn1cc(-c2ncnc3[nH]ccc23)cn1)NO | 18.8 | 8.16 | – | 8.99 | 0.0029 | – | – | 0.138 | – | – | – | – | – | – | –
6 | O=C(CCCCCCC(=O)Nc1ccc(CCCn2cc(-c3ncnc4[nH]ccc34)cn2)cc1)NO | > 50 | > 50 | 0.865 | 23 | 0.0009 | 70 | 2 | 0.265 | – | – | – | – | – | – | –
7 | O=C(CCCCn1cc(-c2ncnc3[nH]ccc23)cn1)NO | > 100 | 12.8 | – | 46.2 | 0.006 | 17.3 | – | 0.854 | – | – | – | – | – | – | –
8 | CN1CCc2c(c3ccccc3n2Cc2ccc(C(=O)NO)cc2)C1 [TUBASTATIN A] | 8.6 | 3.7 | – | 2 | – | 10.4 | – | – | > 4 | > 4 | > 4 | – | – | – | –
9 | C1=N/C2=N/c3ccc(OCCN4CCCC4)c(c3)COC/C=C/COCc3cccc(c3)C(=C1)N2 [PACRITINIB] | – | – | – | – | – | – | – | – | – | – | – | 0.079 | 0.75 | 2.02 | 1.6
10 | O=C(CCCCCCCCCCn1cc(-c2ncnc3[nH]ccc23)cn1)NO | 54.3 | 13.3 | 0.043 | 41.1 | 0.088 | 12.9 | < 1 | 3.54 | – | – | – | – | – | – | –
11 | O=C(CCCCCCC(=O)Nc1ccc(NC(=O)CCCn2cc(-c3ncnc4[nH]ccc34)cn2)cc1)NO | > 100 | > 100 | 1.2 | > 100 | 0.55 | > 100 | 2 | – | – | – | – | – | – | – | –
